EP1362591A1, “Use of a composition containing 5-androstene-3 beta, 17-alpha diol” (LORIA, Roger M., priority 1996, dated 1997)

How the values were obtained:
[1] = system: ZR-75-1 cells; experiment: Cell proliferation assay, tritiated thymidine incorporation; type: cell-based, human; conditions: for cell proliferation: Example 1, six day period
Description: The βAED, 17 beta-oestradiol and tamoxifen were obtained from Sigma Chemical Company (St. Louis, Missouri). The αAED and Flutamide were obtained from Steriloid, Inc. (Walton, New Hampshire) and Schering Corporation (Kenilworth, New Jersey), respectively. All steroids except βAED were dissolved in ethanol. βAED was dissolved in DMSO:ETHOL (1:1 v/v). Stock solutions were filtered and kept at 4°C. For testing, stock solutions were diluted in media immediately before use. The final concentration of vehicle was always ≤ 0.2% in all samples, and this concentration had no significant cytotoxic effect on the human breast cell cancer cell line designated ZR-75-1 (American Type Culture Collection) as determined by trypan blue exclusion.
The ZR-75-1 cell line (passage 89) was obtained from the American Type Culture Collection (Rockville, Maryland). The cells were cultured in RPMI-1640 medium containing 10% heat-inactivated fetal calf serum, 200 µM L-glutamine, […], 1.5 U/ml penicillin, and 1.5 µg/ml streptomycin in 5% CO2 at 37°C. The cells were passaged twice weekly.
(§1) Cells were first seeded at initial density of 1x10^5 cells per ml in quadruplicates in 24 multi-well flat bottom plates (Costar). Cells were then allowed to adhere and grow in phenol red-free […] media supplemented with 10 % heat-inactivated fetal calf serum (FCS), 200 µM L-glutamine, 10 mM HEPES, 2.5 U/ml penicillin and 2.5 µg/ml streptomycin in 5% CO2 at 37°C. After 48 hours, four wells were sacrificed and counted to determine plating efficiency. In the remaining wells, medium was removed by aspiration and cells in each well were exposed to the media containing the specified steroid. The controls containing only medium or medium with vehicle were also prepared. In all samples, medium was changed every 48 hours. At the pre-established time-point. Cells were removed by trypsinization and washed. Cell number and viability were determined by trypan blue exclusion using a hemocytometer. Parallel cultures were also run to determine cell proliferation.
(§2) For cell proliferation assays, cell suspensions were prepared by trypsinization of cells from cultures prepared in accord with methods described above. Cell viability was determined by trypan blue exclusion. The cells were then seeded in flat-bottom 96-well microtiter plates at a density of 2X10^3 cells/well and were allowed to rest for 48 hours in order to adhere. Non-adherent dead cells were removed by aspiration. Cells were then grown in media without phenol red. Some of the media contained supplements as indicated above. The active agents or vehicle control were added to the media. The cells were then grown for six days. Media was changed on the samples every 48 hours. On day 6, cells were pulsed with 1 µCi[…] for the last 6 hours of incubation before harvesting onto glass filter using a HPD cell harvester (Cambridge Technology, Watertown, Massachusetts) and counted on a KLB scintillation counter.

[2] = system: P388D1 cells; experiment: Growth of lymphoid neoplasm cells in the presence of RU486; type: cell-based; conditions: Example 8; RU486 at 0.5 µM and 1.0 µM
Description: as §2
Effect of αAED on growth of lymphoid neoplasm (P388D1 cells obtained from the American Type Culture Collection) in the presence of RU486 at concentration of 0.5 µM and 1.0 µM was studied in accord with the methods described above.

[3] = system: RAW 264.7; experiment: Proliferation of murine macrophage myeloma cells; type: cell-based; conditions: Example 9
Description: as §2
Effects of αAED at doses of 50 ηM and 100 ηM doses on murine macrophage myeloma cells (RAW 264.7, obtained from the American Type Culture Collection) was studied.

[4] = system: ZR-75-1 cells; experiment: Cell count and viability by trypan blue exclusion; type: cell-based, human
Description: as §1
Initial tests were carried out to determine the optimal (maximal) dose of αAED required to inhibit growth of the ZR-75-1 cells in in vitro as determined by tritiated tymidine incorporation. […] To ensure that inhibition was not due to cytotoxicity, cell count and viability were assessed by trypan blue exclusion.

C[C@]12CC[C@H]3[C@@H](CC=C4C[C@@H](O)CC[C@@]43C)[C@@H]1CC[C@@H]2O [βAED, 5-androstene 3ß,17ß diol, reference compound]
antiproliferative effect on the growth of ZR-75-1 cells ([1]; alone at 100 ηM): did not have any antiproliferative effect

C[C@]12CC[C@H]3[C@@H](CC=C4C[C@@H](O)CC[C@@]43C)[C@@H]1CC[C@H]2O [αAED, 5-androstene 3ß,17α diol]
growth of lymphoid neoplasm in combination with RU486 [2]: increased effectiveness over use of one agent
cell proliferation ([1]; 6.25 ηM): increasing proliferation
cell proliferation ([1]; 25 ηM): decreasing cell proliferation
cell proliferation ([1]; 50 ηM): marked decrease
proliferation of cells in the presence of βAED ([1]; Example 2, varied αAED with βAED constant at 2.5 ηM): decreased proliferation at all concentrations
proliferation in the presence of estradiol ([1]; Example 3, higher doses of αAED with 1 ηM estradiol, 6 day period): suppressed proliferation even in the presence of estradiol
antiproliferative effects in the presence of Flutamide ([1]; Example 4, ≥6.25 ηM αAED): greatly enhanced
synergism with RU486 ([1]; Example 5, RU486 1 µM): even greater
proliferation of cells in the presence of RU486 ([1]; Example 5, concentrations of αAED with 0.5 µM RU486): synergistic action to decrease proliferation of cells
IC50 ([1]; Homo sapiens, dose and time-dependent inhibition of ZR-75-1 growth, read-out: half-maximal dose (anti-proliferative effect)): 50 nM
growth of ZR-75-1 cells ([1]; concentration of 25 ηM or greater): significantly inhibited the growth
proliferation of ZR-75-1 cells ([1]; concentrations between 6.25 and 12.5 ηM, P<0.01 vs vehicle control): stimulated proliferation
maximal dose (anti-proliferative effect) ([1]; dose and time-dependent inhibition of ZR-75-1 growth): 100 ηM
effect on the growth of cells ([1]; doses ranging from 3.13 ηM to 50 ηM, compared to vehicle control after 6 days): biphasic effect
proliferation ([3]; 50 ηM): significant inhibition of proliferation
proliferation ([3]; 100 ηM): significant inhibition of proliferation
cytotoxicity (cell count and viability) [4]: not toxic to the cells
